Test results taken from ChEMBL document CHEMBL5726262, “BET protein-inhibiting 5-aryltriazoleazepines” (2017).

Target: Bromodomain-containing protein 4 (Homo sapiens, UniProt O60885)
Test: Time-Resolved Fluorescence Resonance energy Transfer (TR-FRET) Assay: For this purpose, a time-resolved fluorescence resonance energy transfer (TR-FRET) assay was used, which measures the binding between N-terminally His6-tagged BRD4(1) (amino acids 44-168) and a synthetic acetylated histone H4 (Ac-H4) peptide with sequence GRGK(Ac)GGK(Ac)GLGK(Ac)GGAK(Ac)RHGSGSK-biotin. The recombinant BRD4 protein produced in-house according to Filippakopoulos et al., Cell, 2012, 149:214-231 was expressed in E. coli and purified by means of (Ni-NTA) affinity and (Sephadex G-75) size exclusion chromatography. The Ac-H4 peptide can be purchased, for example, from Biosyntan (Berlin, Germany).In the assay, typically 11 different concentrations of each substance (0.1 nM, 0.33 nM, 1.1 nM, 3.8 nM, 13 nM, 44 nM, 0.15 μM, 0.51 μM, 1.7 μM, 5.9 μM and 20 μM) were analysed as duplicates on the same microtitre plate. For this purpose, 100-fold concentrated solutions in DMSO were prepared by serial dilutions (1:3.4) of a 2 mM stock solution into a clear, 384-well microtitre plate (Greiner Bio-One, Frickenhausen, Germany). From this, 50 nl were transferred into a black test plate (Greiner Bio-One, Frickenhausen, Germany). […]

Cc1nnc2n1-c1ccc(OC(F)(F)F)cc1C(c1ccc(Cl)cc1)=C[C@H]2CC(=O)N1CC2(COC2)C1
IC50: 0.22 µM
